Key:
[1] = toxicity determined in rat by intraperitoneal administration (LD50); conditions: in vivo, ip
From the text: Moreover, the compounds of the invention have low toxicity.

Wistar rats = experiment: anxiolytic action: shuttle box conditioning test, painful electric shocks, second sequence; assay type: in vivo
Method: Wistar rats (weighing 100 g. ± 20 g.) are first permitted to become accustomed, during 10 minutes, to conditioning cages of the shuttle box type, after which they are subjected to a first sequence of 20 painful electric shocks of 3 seconds on their paws repeated every 30 seconds. During this first sequence, the rats ran away before the end of the shock about 15 times out of 20 shocks.
On the other hand, if these same animals are subjected to a sequence of shocks 4 hours later, paradoxically, instead of improving their performance (as in the course of a normal training) a reduction in the number of evasions is found: the animals have become set and are less successful in running away before the end of the shocks. This behavior is attributed to an anxiety state induced by the experimental situation.
Intraperitoneal administration of an anxiolytic substance to the rats, half an hour before the second sequence is carried out, improves their performance (increase in the number of evasions before the end of the shock).
A group of rats, to which a substance to be tested is administered, is compared with a group of control rats, which has been injected with physiological serum under the same conditions. […]

Molecule `O=C1NC[C@H](c2ccc(Cl)cc2)[C@@H]1c1ccccc1` (relative stereo) [E, 4-p-chlorophenyl-3-phenyl-2-pyrrolidinone (cis isomer)] has an LD50 [1] of 320 mg/kg.
In the case of `CC1C(=O)NCC1c1ccc(Cl)cc1` [Compound D, 4-p-chlorophenyl-3-methyl-2-pyrrolidinone (trans isomer)], the LD50 [1] is reported as 306 mg/kg.
`CNC1=Nc2ccc(Cl)cc2C(c2ccccc2)=[N+]([O-])C1` [S, 7-chloro-2-methylamino-5-phenyl-3H-1,4-benzodiazepine-4-oxide] gave an LD50 ([1]; reference drug) of 240 mg/kg.
For `O=C1CC(c2ccc(Cl)cc2)CN1` (centres unmarked) [T, 4-(para-chlorophenyl)-pyrrolidone-(2)], the “performance (in words)” value (Wistar rats; dose of 0.32 mmole/kg) was “a decrease in the performance” and the “anxiolytic action (in words)” value (Wistar rats; rat shuttle box test) was “practically no anxiolytic action”.
